# Experimental data published in ChEMBL document CHEMBL1201862, “PubChem BioAssay data set” (2004).
# Active and inactive are the calls of the source.
# Experiments:
# [1] = molecular target: T1, Probable nicotinate-nucleotide adenylyltransferase (Staphylococcus aureus (strain N315), UniProt P65502); type: functional, Staphylococcus aureus subsp. aureus N315; conditions: read-out: IC50_Mean;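 for IC50 Mean: confirmatory dose-response retesting of NadD inhibitor hits first found in an ultra-high-throughput screen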
# T1 sequence (P65502 whole entry): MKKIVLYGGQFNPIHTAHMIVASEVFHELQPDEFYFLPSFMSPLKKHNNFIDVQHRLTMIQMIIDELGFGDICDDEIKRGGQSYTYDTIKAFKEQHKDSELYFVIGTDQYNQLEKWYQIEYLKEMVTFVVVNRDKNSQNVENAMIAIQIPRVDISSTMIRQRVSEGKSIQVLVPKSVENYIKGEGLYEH
# Streptococcus = assay: GAS UMAA2166 growth inhibition – luminescence, BacTiterGlo, counter-screen for streptokinase expression inhibitor project, dose response (AID 1915); type: functional, organism-based;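 note: potency for reduction of bacterial viability or growth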
# [2] = reduction of Shn3 3'UTR-driven luciferase in osteoblasts – cell-based, Clone20 osteoblasts, firefly luciferase, cherry-picked, dose response (AID 624132); type: functional;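 note: firefly luciferase luminescence from reporter carrying the Shn3 3'UTR in osteoblasts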
# [3] = molecular target: T1, Probable nicotinate-nucleotide adenylyltransferase; type: functional, Staphylococcus aureus subsp. aureus N315
# [4] = NIH3T3 cell viability loss – ATP luminescence, mouse fibroblasts, counter-screen, dose response (AID 2010); type: functional, cell-based;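 note: cells exposed to compound for about 90 hours before reading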
# [5] = Trypanosoma cruzi growth suppression in host cells – NIH3T3 host cells, beta-gal luminescence, confirmation (AID 2044); type: functional, cell-based;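 note: intracellular parasites grown in NIH/3T3 mouse fibroblasts as host cells; luminescent beta-galactosidase reporter signal from transgenic T. cruzi replicating inside host cells; inhibitors lower the luminescence signal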
# [6] = loss of viability in HepG2 cells – cell-based, CellTiter-Glo, cherry-picked, cytotoxicity control for Shn3 inhibitor project, dose response (AID 624134); type: functional
# [7] = test system: Streptococcus sp. 'group A'; assay: Streptococcus pyogenes SK(-)GAS viability under kanamycin – luminescence, BacTiterGlo, confirmation, counter-screen for streptokinase expression inhibitor project, dose response (AID 1900); type: functional, organism-based
# cells [8] = type: functional, cell-based
# Streptokinase A = molecular target: T2, Streptokinase A (Streptococcus pyogenes serotype M1, UniProt P10520); assay: viability-normalized secreted streptokinase activity reduction – plasminogen activation absorbance, OD405, dose response (AID 1914); type: functional, Streptococcus pyogenes M1 GAS;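 note: secreted streptokinase activity via plasminogen activation per viability signal from cell pellet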
# T2 sequence (P10520 whole entry): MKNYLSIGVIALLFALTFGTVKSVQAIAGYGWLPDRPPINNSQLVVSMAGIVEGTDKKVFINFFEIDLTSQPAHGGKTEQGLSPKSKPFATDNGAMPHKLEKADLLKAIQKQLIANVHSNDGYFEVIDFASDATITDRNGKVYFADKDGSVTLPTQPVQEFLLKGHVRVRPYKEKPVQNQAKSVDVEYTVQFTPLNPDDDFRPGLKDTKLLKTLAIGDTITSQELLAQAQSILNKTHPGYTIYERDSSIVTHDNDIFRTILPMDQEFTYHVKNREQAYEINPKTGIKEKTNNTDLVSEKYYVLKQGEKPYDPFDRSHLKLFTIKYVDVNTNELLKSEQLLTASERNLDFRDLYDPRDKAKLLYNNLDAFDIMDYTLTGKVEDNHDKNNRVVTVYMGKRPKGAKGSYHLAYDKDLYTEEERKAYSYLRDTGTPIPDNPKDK
# INS1 = assay: INS-1E survival protection against cytokine death – cell-based, luminescence, retest, dose response (AID 449756); type: functional; conditions: Rattus norvegicus;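 note: cell death triggered by IL-1 beta plus TNF-alpha plus IFN-gamma mixture; protective hits raise ATP signal compared with cytokine alone wells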
# [9] = non-specific 3'UTR reporter inhibition in Clone20-Shn3RL – cell-based, Renilla luciferase, cherry-picked, counter-screen for Shn3 inhibitor project, dose response (AID 624133); type: functional
# [10] = molecular target: T3, Type-1 angiotensin II receptor (Homo sapiens, UniProt P30556); assay: agonist activity at AGTR1 – cell-based, uHTS hits, selectivity assay for APJ receptor agonist project, dose response (AID 488865); type: functional;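 note: beta-arrestin recruitment to AT1 measured by enzyme fragment complementation luminescence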
# T3 sequence (P30556 whole entry): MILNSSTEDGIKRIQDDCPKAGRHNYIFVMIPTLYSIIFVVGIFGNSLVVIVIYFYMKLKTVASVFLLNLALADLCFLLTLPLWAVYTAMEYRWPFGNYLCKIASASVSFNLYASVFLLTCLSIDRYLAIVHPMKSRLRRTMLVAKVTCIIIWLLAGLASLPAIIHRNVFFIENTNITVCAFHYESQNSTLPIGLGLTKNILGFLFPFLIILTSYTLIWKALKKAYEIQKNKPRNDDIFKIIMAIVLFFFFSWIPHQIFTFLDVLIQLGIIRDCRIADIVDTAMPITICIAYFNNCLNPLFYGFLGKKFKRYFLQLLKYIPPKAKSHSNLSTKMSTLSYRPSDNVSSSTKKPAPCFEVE
# cells [11] = type: functional, cell-based; remark: listed apart in the source
# Ion channel NompC = Ion channel NompC (Danio rerio, UniProt Q7T1G6); assay: Dose response cell-based high-throughput screening assay for agonists of the transient receptor potential channel N1 (TRPN1). [Related pubchem assays (depositor defined):AID1424, AID1448]; type: functional
# Ion channel NompC, sequence (Q7T1G6 whole entry): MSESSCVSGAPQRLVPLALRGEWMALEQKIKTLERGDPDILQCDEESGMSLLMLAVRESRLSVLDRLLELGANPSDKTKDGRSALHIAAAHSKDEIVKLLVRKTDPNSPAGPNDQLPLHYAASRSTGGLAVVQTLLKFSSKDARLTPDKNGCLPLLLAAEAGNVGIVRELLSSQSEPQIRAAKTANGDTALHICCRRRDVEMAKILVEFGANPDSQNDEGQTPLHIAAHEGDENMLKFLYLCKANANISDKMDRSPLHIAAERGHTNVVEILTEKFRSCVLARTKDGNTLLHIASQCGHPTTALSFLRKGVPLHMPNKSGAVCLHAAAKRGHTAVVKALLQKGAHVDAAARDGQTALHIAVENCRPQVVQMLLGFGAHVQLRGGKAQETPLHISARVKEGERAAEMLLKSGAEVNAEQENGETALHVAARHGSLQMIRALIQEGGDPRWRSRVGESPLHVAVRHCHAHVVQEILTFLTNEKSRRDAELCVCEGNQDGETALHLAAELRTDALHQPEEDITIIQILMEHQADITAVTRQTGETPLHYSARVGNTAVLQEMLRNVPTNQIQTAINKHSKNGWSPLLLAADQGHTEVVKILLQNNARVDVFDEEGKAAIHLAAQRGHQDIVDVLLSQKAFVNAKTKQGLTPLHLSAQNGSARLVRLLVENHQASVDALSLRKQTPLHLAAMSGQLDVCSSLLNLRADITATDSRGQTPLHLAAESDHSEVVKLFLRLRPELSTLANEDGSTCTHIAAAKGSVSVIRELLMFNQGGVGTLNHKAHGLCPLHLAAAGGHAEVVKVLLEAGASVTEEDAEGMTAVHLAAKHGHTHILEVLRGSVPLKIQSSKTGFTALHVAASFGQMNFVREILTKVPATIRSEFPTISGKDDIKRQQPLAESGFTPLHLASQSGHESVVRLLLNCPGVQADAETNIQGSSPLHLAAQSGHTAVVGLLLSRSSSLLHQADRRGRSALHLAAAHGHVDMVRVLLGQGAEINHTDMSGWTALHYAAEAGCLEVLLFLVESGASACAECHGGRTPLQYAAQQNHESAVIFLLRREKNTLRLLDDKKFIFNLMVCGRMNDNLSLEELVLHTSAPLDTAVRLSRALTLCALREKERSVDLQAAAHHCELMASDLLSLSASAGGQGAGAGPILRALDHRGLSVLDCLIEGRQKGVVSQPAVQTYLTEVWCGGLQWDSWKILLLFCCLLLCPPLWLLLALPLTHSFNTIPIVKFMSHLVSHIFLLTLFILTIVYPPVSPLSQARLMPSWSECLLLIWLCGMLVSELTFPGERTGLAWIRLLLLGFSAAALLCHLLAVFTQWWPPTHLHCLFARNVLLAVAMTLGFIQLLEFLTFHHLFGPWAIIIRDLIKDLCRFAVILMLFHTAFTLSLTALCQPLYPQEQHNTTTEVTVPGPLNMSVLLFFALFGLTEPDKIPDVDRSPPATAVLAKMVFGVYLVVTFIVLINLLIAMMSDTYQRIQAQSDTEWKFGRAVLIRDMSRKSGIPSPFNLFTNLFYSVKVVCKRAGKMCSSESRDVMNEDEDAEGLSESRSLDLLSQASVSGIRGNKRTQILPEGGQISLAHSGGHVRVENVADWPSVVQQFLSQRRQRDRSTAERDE
# [12] = viability of uninfected HEp-2 cells – cell-based, HTS, cytotoxicity control for RSV inhibitor project, dose response (AID 2410); type: functional; conditions: human respiratory syncytial virus
# Mucolipin-3 = molecular target: T4, Mucolipin-3 (Homo sapiens, UniProt Q8TDD5); assay: Fluorescence counterscreen assay for […] agonists: dose response cell-based high-throughput screening assay to identify agonists of the transient receptor potential channel ML3 (TRPML3). [Related pubchem assays: 1424, 1448 ]; type: functional
# T4 sequence (Q8TDD5 whole entry): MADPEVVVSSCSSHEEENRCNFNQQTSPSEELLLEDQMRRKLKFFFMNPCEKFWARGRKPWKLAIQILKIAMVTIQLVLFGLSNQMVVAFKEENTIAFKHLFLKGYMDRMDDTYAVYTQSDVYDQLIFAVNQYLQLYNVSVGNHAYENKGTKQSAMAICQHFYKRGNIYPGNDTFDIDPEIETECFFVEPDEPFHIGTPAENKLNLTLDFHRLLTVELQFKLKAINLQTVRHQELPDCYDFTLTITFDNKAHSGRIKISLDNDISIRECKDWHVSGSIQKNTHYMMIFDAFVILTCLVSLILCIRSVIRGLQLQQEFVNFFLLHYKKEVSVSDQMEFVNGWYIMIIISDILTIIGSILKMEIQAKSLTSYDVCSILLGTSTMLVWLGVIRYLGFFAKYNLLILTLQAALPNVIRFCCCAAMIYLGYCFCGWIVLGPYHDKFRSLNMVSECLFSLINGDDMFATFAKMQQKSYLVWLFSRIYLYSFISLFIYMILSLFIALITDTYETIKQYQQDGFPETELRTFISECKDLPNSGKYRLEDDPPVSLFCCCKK
# [13] = molecular target: T5, Delta-type opioid receptor (Homo sapiens, UniProt P41143); assay: HTS Image-Based Screen for Antagonists of the DOR Receptor. [Related pubchem assays (depositor defined):AID1777, AID1785, AID1786, AID2133]; type: functional
# T5 sequence (P41143 whole entry): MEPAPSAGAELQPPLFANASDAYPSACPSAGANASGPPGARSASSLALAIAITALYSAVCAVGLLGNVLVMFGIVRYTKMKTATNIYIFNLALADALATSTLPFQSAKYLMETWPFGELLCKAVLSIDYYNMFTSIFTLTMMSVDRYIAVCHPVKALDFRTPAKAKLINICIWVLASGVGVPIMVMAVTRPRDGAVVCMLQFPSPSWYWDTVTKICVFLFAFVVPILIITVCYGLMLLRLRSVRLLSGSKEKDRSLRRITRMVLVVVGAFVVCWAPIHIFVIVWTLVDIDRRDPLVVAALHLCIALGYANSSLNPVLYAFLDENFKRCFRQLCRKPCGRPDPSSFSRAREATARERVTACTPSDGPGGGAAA
# [14] = molecular target: T6, Kappa-type opioid receptor (Homo sapiens, UniProt P41145); type: functional
# T6 sequence (P41145 whole entry): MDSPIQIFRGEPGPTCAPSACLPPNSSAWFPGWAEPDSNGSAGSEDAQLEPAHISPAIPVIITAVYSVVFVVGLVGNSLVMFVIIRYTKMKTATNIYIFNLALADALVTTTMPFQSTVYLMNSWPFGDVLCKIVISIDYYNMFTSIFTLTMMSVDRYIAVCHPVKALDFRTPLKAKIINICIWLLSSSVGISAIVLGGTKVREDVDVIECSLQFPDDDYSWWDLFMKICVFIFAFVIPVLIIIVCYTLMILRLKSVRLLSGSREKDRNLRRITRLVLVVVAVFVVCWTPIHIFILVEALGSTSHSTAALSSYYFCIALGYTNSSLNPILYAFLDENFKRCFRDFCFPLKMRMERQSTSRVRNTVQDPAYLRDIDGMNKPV
# [15] = molecular target: T6, Kappa-type opioid receptor; type: functional; remark: listed apart in the source
# Mu-type opioid receptor = Mu-type opioid receptor (Homo sapiens, UniProt P35372); assay: HTS Image-Based Screen for Agonists of the MOR Receptor. [Related pubchem assays (depositor defined):AID1777, AID1785, AID1786, AID2133]; type: functional;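 note: imaging of beta-arrestin GFP recruitment into spots after receptor activation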
# Mu-type opioid receptor, sequence (P35372 whole entry): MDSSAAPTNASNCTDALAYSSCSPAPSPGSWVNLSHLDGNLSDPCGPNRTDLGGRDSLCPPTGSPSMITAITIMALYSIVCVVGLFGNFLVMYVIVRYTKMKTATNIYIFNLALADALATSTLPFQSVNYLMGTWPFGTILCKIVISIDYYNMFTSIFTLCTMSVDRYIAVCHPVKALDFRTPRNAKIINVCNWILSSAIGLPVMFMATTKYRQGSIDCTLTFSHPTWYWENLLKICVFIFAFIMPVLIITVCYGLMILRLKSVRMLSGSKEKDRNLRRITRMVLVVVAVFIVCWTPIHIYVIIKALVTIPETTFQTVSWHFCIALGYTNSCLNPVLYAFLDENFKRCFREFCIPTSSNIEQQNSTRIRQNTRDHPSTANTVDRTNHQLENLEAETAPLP
# [16] = molecular target: T5, Delta-type opioid receptor; assay: HTS Image-Based Screen for Agonists of the DOR Receptor. [Related pubchem assays (depositor defined):AID1777, AID1786, AID2133]; type: functional
# Beta-galactosidase = Beta-galactosidase (Escherichia coli, UniProt Q8VNN2); type: functional
# Beta-galactosidase, sequence (Q8VNN2 whole entry): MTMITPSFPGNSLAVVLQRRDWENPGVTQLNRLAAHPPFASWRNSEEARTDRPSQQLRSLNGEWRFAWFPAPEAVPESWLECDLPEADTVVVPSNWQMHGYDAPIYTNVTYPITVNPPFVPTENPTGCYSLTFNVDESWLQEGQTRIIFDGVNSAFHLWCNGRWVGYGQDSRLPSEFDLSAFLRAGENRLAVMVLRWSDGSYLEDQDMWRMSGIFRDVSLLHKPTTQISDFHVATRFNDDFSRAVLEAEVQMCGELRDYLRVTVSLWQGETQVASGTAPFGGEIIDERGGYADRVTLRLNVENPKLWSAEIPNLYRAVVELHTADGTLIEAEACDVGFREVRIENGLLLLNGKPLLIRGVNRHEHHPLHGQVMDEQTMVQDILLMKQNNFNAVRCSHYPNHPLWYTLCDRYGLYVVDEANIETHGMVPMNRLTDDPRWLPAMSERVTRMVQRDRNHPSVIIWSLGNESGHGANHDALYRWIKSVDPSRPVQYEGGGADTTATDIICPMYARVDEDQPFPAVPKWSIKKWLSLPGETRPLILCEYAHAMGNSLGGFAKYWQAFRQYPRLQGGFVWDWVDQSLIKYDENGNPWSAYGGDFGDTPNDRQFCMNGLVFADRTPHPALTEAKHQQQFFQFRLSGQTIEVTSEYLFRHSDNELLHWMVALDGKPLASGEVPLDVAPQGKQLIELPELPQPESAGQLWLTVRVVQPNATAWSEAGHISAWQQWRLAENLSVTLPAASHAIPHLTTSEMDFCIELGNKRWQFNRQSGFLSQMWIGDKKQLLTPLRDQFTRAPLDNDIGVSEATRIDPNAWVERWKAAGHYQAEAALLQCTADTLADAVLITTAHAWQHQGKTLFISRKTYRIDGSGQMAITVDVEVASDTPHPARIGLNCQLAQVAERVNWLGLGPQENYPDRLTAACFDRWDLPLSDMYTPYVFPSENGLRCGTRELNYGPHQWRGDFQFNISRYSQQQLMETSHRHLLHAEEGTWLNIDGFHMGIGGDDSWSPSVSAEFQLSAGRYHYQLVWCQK
# [17] = molecular target: T7, DNA repair protein RAD52 homolog (Homo sapiens, UniProt P43351); type: functional, biochemical
# T7 sequence (P43351 whole entry): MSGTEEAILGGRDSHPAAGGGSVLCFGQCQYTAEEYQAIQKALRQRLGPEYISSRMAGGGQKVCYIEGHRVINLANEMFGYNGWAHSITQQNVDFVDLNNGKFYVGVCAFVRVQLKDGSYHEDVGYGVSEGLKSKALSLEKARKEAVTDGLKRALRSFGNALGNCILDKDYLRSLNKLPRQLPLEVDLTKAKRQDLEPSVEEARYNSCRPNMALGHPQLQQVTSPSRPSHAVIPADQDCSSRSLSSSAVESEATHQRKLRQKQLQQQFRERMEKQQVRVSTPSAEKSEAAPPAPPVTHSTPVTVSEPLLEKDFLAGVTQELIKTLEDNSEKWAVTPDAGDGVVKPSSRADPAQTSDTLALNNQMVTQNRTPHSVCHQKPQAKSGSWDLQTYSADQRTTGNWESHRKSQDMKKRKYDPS
# [18] = molecular target: T8, Ubiquitin-conjugating enzyme E2 N (Homo sapiens, UniProt P61088); type: functional
# T8 sequence (P61088 whole entry): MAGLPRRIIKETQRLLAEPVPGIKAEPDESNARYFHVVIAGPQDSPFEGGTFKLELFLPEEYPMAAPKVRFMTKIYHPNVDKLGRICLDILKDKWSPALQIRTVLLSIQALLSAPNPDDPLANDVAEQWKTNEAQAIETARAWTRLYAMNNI
# [19] = molecular target: T8, Ubiquitin-conjugating enzyme E2 N; type: functional; remark: listed apart in the source
# Bcl-2-related protein A1 = molecular target: T9, Bcl-2-related protein A1 (Mus musculus, UniProt Q07440); type: functional;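 note: confirmatory dose–response counterscreen on Bfl-1, used to check hits from a UBC13 polyubiquitin inhibitor campaign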
# T9 sequence (Q07440 whole entry): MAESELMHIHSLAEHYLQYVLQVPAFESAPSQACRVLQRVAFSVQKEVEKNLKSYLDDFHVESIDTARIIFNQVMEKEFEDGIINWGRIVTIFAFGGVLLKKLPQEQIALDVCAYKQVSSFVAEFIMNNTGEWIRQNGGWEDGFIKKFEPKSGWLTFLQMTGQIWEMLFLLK
smiles,measurement,setting,value
Cc1cc(C)c2nc(NNC(=O)c3ccc(S(=O)(=O)N4CCc5ccccc5C4)cc3)sc2c1,IC50,[1],38.1 µM (active)
same,EC50,Streptococcus,61.5 µM (inconclusive)
same,AC50,[2],1.98 µM (active)
same,IC50,[3],7.18 µM (active)
same,EC50,[4],< 6 µM (inconclusive)
same,EC50,[5],0.661 µM (active)
same,AC50,[6],2.91 µM (active)
same,EC50,[7],0.458 µM (active)
same,EC50,cells [8],> 350 µM (not active)
same,EC50,Streptokinase A,> 150 µM (not active)
same,AC50,INS1,2.19 µM (active)
same,AC50,[9],3.35 µM (active)
same,EC50,[10],> 100 µM (inactive)
same,EC50,cells [11],7.06 µM (active)
COc1ccccc1CC(=O)Nc1ccc([N+](=O)[O-])cc1O,EC50,Ion channel NompC,> 29.9 µM (inactive)
same,CC50,[12],27.7 µM (active)
same,EC50,Mucolipin-3,> 29.9 µM (not active)
Cc1ccc(CN2C3CCCC2CC(NC(=O)c2ccc(F)cc2)C3)cc1 (stereo not drawn),IC50,[13],> 32 µM (inactive)
same,IC50,[14],3.7 µM
same,IC50,[15],7.7 µM (active)
same,EC50,Mu-type opioid receptor,> 32 µM (inactive)
same,EC50,[16],> 32 µM (inactive)
same,EC50,Beta-galactosidase,> 31.5 µM (inactive)
CCOc1cccc2sc(N(CCCN(C)C)C(=O)c3ccc(S(=O)(=O)N4CCc5ccccc5C4)cc3)nc12,AC50,[17],21.2 µM (active)
same,IC50,[18],8.33 µM (active)
same,EC50,[10],> 100 µM (inactive)
same,IC50,[19],7.45 µM (active)
same,IC50,Bcl-2-related protein A1,> 20 µM (inactive)
